Assay results as given in PubChem BioAssay AID1745844 (Carcinogenic Potency Database (CPDB), 2022).
Active and inactive are the calls of the source. The rule behind the calls is not given here.

Test system: rodent lifetime carcinogenesis bioassay, tumor incidence TD50
Assay: carcinogenic potency in animals, long-term in vivo studies, CPDB compilation (AID 1745844)

NC(=O)NC1NC(=O)NC1=O (centres undefined)
carcinogen call (rat, strain Fischer 344, females, in feed, site: liver, lesion: neoplastic nodule, dosed 106 weeks, study length 128 weeks): negative (inactive) | carcinogen call (rat, strain Fischer 344, males, in feed, site: liver, lesion: neoplastic nodule, dosed 106 weeks, study length 128 weeks): negative (inactive)

Cc1ncc([N+](=O)[O-])n1CCO
TD50 (mouse, strain Swiss, females, in feed, site: all sites, lesion: malignant lymphoma, dosed 122 weeks, study length 128 weeks): 1300 mg/kg/day | TD50 (mouse, strain Swiss, females, in feed, site: liver, lesion: several types, types named in the paper, dosed 122 weeks, study length 128 weeks): 24200 mg/kg/day (inactive) | TD50 (mouse, strain Swiss, females, in feed, site: lung, lesion: several types, types named in the paper, dosed 122 weeks, study length 128 weeks): 937 mg/kg/day | TD50 (mouse, strain Swiss, males, in feed, site: liver, lesion: several types, types named in the paper, dosed 116 weeks, study length 124 weeks): 20700 mg/kg/day (inactive) | TD50 (mouse, strain Swiss, males, in feed, site: lung, lesion: several types, types named in the paper, dosed 116 weeks, study length 124 weeks): 347 mg/kg/day | TD50 (rat, strain Sas:MRC(WI)BR, females, in feed, site: any site (literature study), lesion: several types, types named in the paper, dosed 147 weeks, study length 151 weeks): 139 mg/kg/day | TD50 (rat, strain Sas:MRC(WI)BR, females, in feed, site: liver, lesion: hepatocellular carcinoma, dosed 147 weeks, study length 151 weeks): 1860 mg/kg/day | TD50 (rat, strain Sas:MRC(WI)BR, females, in feed, site: mammary gland, lesion: fibroadenoma, dosed 147 weeks, study length 151 weeks): 431 mg/kg/day | TD50 (rat, strain Sas:MRC(WI)BR, females, in feed, site: mammary gland, lesion: several types, types named in the paper, dosed 147 weeks, study length 151 weeks): 446 mg/kg/day | carcinogen call (rat, strain Sas:MRC(WI)BR, females, in feed, site: pituitary gland, lesion: several types, types named in the paper, dosed 147 weeks, study length 151 weeks): negative (inactive) | TD50 (rat, strain Sas:MRC(WI)BR, females, in feed, site: subcutaneous tissue, lesion: several types, types named in the paper, dosed 147 weeks, study length 151 weeks): 4050 mg/kg/day | TD50 (rat, strain Sas:MRC(WI)BR, females, in feed, site: uterus, lesion: several types, types named in the paper, dosed 147 weeks, study length 151 weeks): 2970 mg/kg/day (inactive) | TD50 (rat, strain Sas:MRC(WI)BR, males, in feed, site: any site (literature study), lesion: several types, types named in the paper, dosed 140 weeks, study length 144 weeks): 211 mg/kg/day | TD50 (rat, strain Sas:MRC(WI)BR, males, in feed, site: liver, lesion: hepatocellular carcinoma, dosed 140 weeks, study length 144 weeks): 45900 mg/kg/day | TD50 (rat, strain Sas:MRC(WI)BR, males, in feed, site: mammary gland, lesion: fibroadenoma, dosed 140 weeks, study length 144 weeks): 2490 mg/kg/day | TD50 (rat, strain Sas:MRC(WI)BR, males, in feed, site: pituitary gland, lesion: several types, types named in the paper, dosed 140 weeks, study length 144 weeks): 731 mg/kg/day | TD50 (rat, strain Sas:MRC(WI)BR, males, in feed, site: subcutaneous tissue, lesion: several types, types named in the paper, dosed 140 weeks, study length 144 weeks): 2360 mg/kg/day | TD50 (rat, strain Sas:MRC(WI)BR, males, in feed, site: testis, lesion: several types, types named in the paper, dosed 140 weeks, study length 144 weeks): 993 mg/kg/day | TD50 (rat, strain Sprague-Dawley, females, in feed, site: any site (literature study), lesion: several types, types named in the paper, dosed 66 weeks, study length 75 weeks): 61.1 mg/kg/day (inactive) | TD50 (rat, strain Sprague-Dawley, females, in feed, site: uterus, lesion: adenomyoma, dosed 66 weeks, study length 75 weeks): 180 mg/kg/day (inactive)

Cc1cc(=O)[nH]c(=S)[nH]1
TD50 (hamster, strain Not specified, females, in drinking water, site: thyroid gland, lesion: several types, types named in the paper, dosed 52 weeks, study length 52 weeks): 53.4 mg/kg/day | TD50 (mouse, strain C3H/FIB, both sexes, in feed, site: liver, lesion: hepatoma, dosed 51 weeks, study length 78 weeks): 1370 mg/kg/day
